Values after ≈ are worked out from the molar mass of the structure shown. Like-named read-outs stand apart in the source and are kept apart here.
Legend:
mature SARSCoV2 M^pro = mature SARSCoV2 M^pro (Severe acute respiratory syndrome coronavirus 2, UniProt P0DTD1); experiment: biochemical; parameters: species or system SARS-CoV-2
MHV M^pro = MHV M^pro (UniProt P0C6X9); experiment: In-vitro Mpro inhibition assay, MHV enzyme; assay type: biochemical, mouse hepatitis virus (MHV); settings: 100 nM MHV Mpro; read-out: IC50 MHV Mpro
Chain of MHV M^pro (P0C6X9 3334-3635): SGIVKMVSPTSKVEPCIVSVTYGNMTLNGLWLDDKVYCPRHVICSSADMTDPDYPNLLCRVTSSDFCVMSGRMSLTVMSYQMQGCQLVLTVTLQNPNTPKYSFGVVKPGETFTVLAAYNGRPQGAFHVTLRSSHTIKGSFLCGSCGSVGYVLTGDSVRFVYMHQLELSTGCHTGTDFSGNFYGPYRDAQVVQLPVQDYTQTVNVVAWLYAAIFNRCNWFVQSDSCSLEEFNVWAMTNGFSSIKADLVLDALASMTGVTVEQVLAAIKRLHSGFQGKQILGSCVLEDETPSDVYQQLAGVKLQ

MERS Mpro = MERS Mpro (Middle East respiratory syndrome-related coronavirus, UniProt K9N7C7); experiment: biochemical
Chain of MERS Mpro (K9N7C7 3248-3553 limits assumed): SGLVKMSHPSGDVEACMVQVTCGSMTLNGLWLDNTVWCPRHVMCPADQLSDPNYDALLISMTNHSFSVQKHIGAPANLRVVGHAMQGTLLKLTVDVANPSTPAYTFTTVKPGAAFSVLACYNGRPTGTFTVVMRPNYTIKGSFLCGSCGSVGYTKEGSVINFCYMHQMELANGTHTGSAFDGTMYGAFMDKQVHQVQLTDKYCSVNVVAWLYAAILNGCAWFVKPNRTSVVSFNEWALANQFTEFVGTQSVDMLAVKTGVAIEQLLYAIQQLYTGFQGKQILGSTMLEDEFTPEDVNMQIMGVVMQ

HCoV229E Mpro = HCoV229E Mpro (Human coronavirus 229E, UniProt P0C6X1); experiment: biochemical
Chain of HCoV229E Mpro (P0C6X1 2966-3267): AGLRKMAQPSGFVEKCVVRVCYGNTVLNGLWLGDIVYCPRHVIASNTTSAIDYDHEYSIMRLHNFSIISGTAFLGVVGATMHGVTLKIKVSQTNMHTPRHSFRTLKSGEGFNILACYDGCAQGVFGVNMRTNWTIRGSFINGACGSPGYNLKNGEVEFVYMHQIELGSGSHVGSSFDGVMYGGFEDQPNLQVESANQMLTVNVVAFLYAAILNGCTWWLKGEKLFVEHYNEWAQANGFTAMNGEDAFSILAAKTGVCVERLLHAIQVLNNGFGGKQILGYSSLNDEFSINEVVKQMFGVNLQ

Human Cathepsin B = Human Cathepsin B (Homo sapiens, UniProt P07858); experiment: Cathepsin B protease specificity assay (Z-LR-AMC substrate); assay type: biochemical
Human Cathepsin L = Human Cathepsin L (Homo sapiens, UniProt P07711); experiment: biochemical; settings: 0.01 ng/uL Cathepsin L, pH 5.5, 2 mM DTT; read-out: IC50 HCathepsin L
Chain of Human Cathepsin L (P07711 114-333): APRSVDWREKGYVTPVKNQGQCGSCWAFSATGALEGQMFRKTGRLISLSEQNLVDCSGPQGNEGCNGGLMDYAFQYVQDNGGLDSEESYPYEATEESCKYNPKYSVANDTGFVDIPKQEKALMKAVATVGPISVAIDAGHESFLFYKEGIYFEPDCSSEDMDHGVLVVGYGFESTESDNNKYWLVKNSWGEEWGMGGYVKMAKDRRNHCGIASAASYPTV

SARS-CoV-2 mature Mpro = SARS-CoV-2 mature Mpro (Severe acute respiratory syndrome coronavirus 2, UniProt P0DTD1); assay type: binding; settings: 3 μM Mpro, 30 μM compound
in vitro [1] = settings: human
in vitro [2] = settings: human; remark: listed apart in the source
physchem = settings: aqueous buffer, kinetic from dmso stock
in vitro [3] = settings: human, Caco-2
in vitro [4] = settings: mouse, plasma
in vitro [5] = settings: human, Caco-2; remark: listed apart in the source
in vitro [6] = settings: human plasma
SARS-CoV-2 M^pro-His6 = SARS-CoV-2 M^pro-His6 (Severe acute respiratory syndrome coronavirus 2, UniProt P0DTD1); experiment: biochemical
SARSCoV2 = assay type: cell-based, SARS-CoV-2; settings: read-out: EC50: 50% effective antiviral concentration
Huh7 cells [7] = settings: 100 μM, Huh-7 cells
Huh7 cells [8] = settings: read-out: CC50 Huh7; 72h incubation
[9] = not given; remark: listed apart in the source
[10] = not given; remark: listed apart in the source
[11] = after a maximal 750 mg dose; cited from earlier work
[12] = 20 nM SARSCoV2 Mpro, 30 min incubation, read-out: IC50 SARSCov2 Mpro
[13] = 0.05 ng/uL Cathepsin B, pH 5.5, 2 mM DTT, read-out: IC50 HCathepsin B
[14] = Example 6, read-out: IC50 against SARS-CoV-2 Mpro

SMILES | IC50 (mature SARSCoV2 M^pro; [12]) [nM] | IC50 (MHV M^pro) [nM] | IC50 (MERS Mpro) [nM] | IC50 (HCoV229E Mpro) [nM] | IC50 (Human Cathepsin B; [13]) [nM] | IC50 (Human Cathepsin L) [nM] | ΔTm Mpro (SARS-CoV-2 mature Mpro) [°C] | Plasma Stability Human T1/2 | CC50 (in vitro [1]) [nM] | CC50 (in vitro [2]) [nM] | solubility kinetic (physchem) [µM] | Papp A→B (in vitro [3]) [×10⁻⁶ cm/s] | Papp B→A (in vitro [3]) [×10⁻⁶ cm/s] | half-life (in vitro [4]) [min] | other results
CC1(C)[C@@H]2[C@@H](C(=O)N[C@@H](C[C@@H]3CCNC3=O)C(=O)C(N)=O)N(C(=O)CCc3ccccc3)C[C@@H]21 [ML102] | 90 | 980 | 1200 | 290 | 2200 | 800 | 15.5 | ∞ | > 100000 | > 100000 | 83 (≈ 38.9 µg/mL) | < 0.2 | 0.7 | 18 | –
CC(C)(C)CC(=O)N[C@H](C(=O)N1C[C@H]2[C@@H]([C@H]1C(=O)NC(C[C@@H]1CCNC1=O)C(=O)C(N)=O)C2(C)C)C(C)(C)C (stereo partly drawn) [ML1001] | – | 70 | 260 | 500 | 42000 | 33000 | 21.6 | – | > 100000 | > 100000 | 66 (≈ 36.1 µg/mL) | < 0.2 | 0.5 | 26 | CC50 (in vitro [5]): > 100000 nM; half-life (in vitro [6]): 330 min
CC(C)(C)[C@H](NC(=O)C12CC(C1)C2)C(=O)N1C[C@H]2[C@@H]([C@H]1C(=O)N[C@@H](C[C@@H]1CCNC1=O)C(=O)C(N)=O)C2(C)C [ML1002] | 20 | – | 190 | 260 | – | – | 21.6 | – | > 100000 | > 100000 | > 100 | < 0.2 | < 0.2 | 21 | IC50 (mature SARSCoV2 M^pro; [14]): < 50 nM
CC(C)c1nc(CN(C)C(=O)N[C@H](C(=O)N[C@@H](Cc2ccccc2)C[C@H](O)[C@H](Cc2ccccc2)NC(=O)OCc2cncs2)C(C)C)cs1 [ritonavir] | – | – | – | – | – | – | – | – | – | – | – | – | – | – | inhibition at 150 µM (SARS-CoV-2 M^pro-His6; 150 μM drug, 2 mM DTT, 100 nM M^pro-His6, read-out: inhibition of enzyme activity): < 50%; inhibition of M^pro activity (SARS-CoV-2 M^pro-His6; 150 μM, absence of DTT (air-equilibrated buffer)): no inhibitory effect
CNC(=O)C(=O)[C@H](C[C@@H]1CCNC1=O)NC(=O)[C@@H]1[C@@H]2[C@H](CN1C(=O)CCc1ccccc1)C2(C)C [ML102m] | 120 | – | 1100 | 720 | – | – | 15.2 | – | > 100000 | > 100000 | > 100 | 0.4 | 1.8 | 45 | –
CC(C)(C)NC(=O)N[C@H](C(=O)N1C[C@H]2[C@@H]([C@H]1C(=O)N[C@@H](C[C@@H]1CCNC1=O)C(=O)C(N)=O)C2(C)C)C(C)(C)C [ML1000] | – | – | – | 130 | 5900 | 3200 | – | 109 min | – | – | – | – | – | – | IC50 (MERS Mpro; read-out: IC50 MERS Mpro): 530 nM; EC50 (SARSCoV2): 100 nM; cytotoxicity at the highest dose tested (Huh7 cells [7]): no cytotoxicity; CC50 (Huh7 cells [8]): > 100000 nM; Kinetic Solubility in PBS [9]: 87 µM; Caco-2 Permeability Papp B-A (Caco-2; B-A): 0.4 10-6 cm/s; Caco-2 Permeability Papp A-B (Caco-2; Caco-2): <0.2 10-6 cm/s; Plasma Stability Mouse T1/2 [10]: 23 min
COc1cccc2[nH]c(C(=O)N3C[C@H]4[C@@H]([C@H]3C(=O)N[C@@H](C[C@@H]3CCNC3=O)C(=O)C(N)=O)C4(C)C)cc12 [ML105] | 20 | 60 | 340 | 10 | 700 | 300 | 18.6 | ∞ | > 100000 | > 100000 | 80 (≈ 40.8 µg/mL) | < 0.2 | 0.3 | 20 | IC50 (mature SARSCoV2 M^pro; [14]): < 50 nM; CC50 (in vitro [5]): > 100000 nM
CCC[C@H](NC(=O)[C@@H]1[C@H]2CCC[C@H]2CN1C(=O)[C@@H](NC(=O)[C@@H](NC(=O)c1cnccn1)C1CCCCC1)C(C)(C)C)C(=O)C(=O)NC1CC1 [Telaprevir, telaprevir, reference compound] | – | – | – | – | – | 25000 | – | – | 10000 to 100000 | 10000 to 100000 | – | – | – | – | IC50 (Human Cathepsin B): 36000 nM; peak plasma concentration [11]: 5 µM
